Experimental data reported in patent publication US5073571A, “Method of inhibiting virus” (priority 1989, dated 1991).

Assays:
HIV-1 [1] = assay: HIV-1 replication in H9 cells, reverse transcriptase activity of culture supernatants (acute infection); assay type: cell-based, HIV-1 strain HXB2gptX (in human H9 cells); settings: for relative efficacy on HIV-1 production: 1-100 μM, ranking among the four analogs
Experimental: (§1) Media was changed every other day. The effect of these compounds on virus production was determined by measuring the reverse transcriptase (RT) activity in samples of the cell culture supernatants. […] Negative controls consisted of no additions or 0.1ethanol. The results of duplicate assays were averaged. Panel B -Concentration-dependent effects of 13-oxamyristic acid on HIV-1 replication as measured by RT activity (percent of untreated control) and the presence of p24 antigen (ng/ml determined by ELISA). Error bars indicate the S.E.M. of assays done in triplicate. Panel C - The effect of 13-oxamyristic acid on syncytia formation using an arbitrary scale described under Materials and Methods, Example 16, below. Panel D - Toxicity of 13-oxamyristic acid determined by viable cell count (trypan blue exclusion), as well as by [^3 H]thymidine and [^3 H]leucine labeling (see under Materials and Methods, Example 16, below). The incorporation of these radiolabeled compounds was determined in the total cell population contained in a well after 10 days of treatment with the analog. Duplicate assays were performed and the results averaged.
Assay for HIV-1 Replication. The human T-lymphoid cell line, H9, was provided by R. D. Gallo (NIH) and maintained in RPMI-1640 medium supplemented with 10% fetal bovine serum, 100 IU/mL penicillin, 100 μg/mL streptomycin an 2 mM L-glutamine. HIV-1 strain HXB2gptX [Fisher et al., Science 233, 655-659 (1986)] was obtained from cultures of chronically infected H9 cells [Popovic et al., Science 224, 497-500 (1984)]< filtered through 0.2 μm Millipore filters and stored at -90° C. The titer of the virus stock was determined by serial dilution using syncytia formation and reverse transcriptase activity (see below) as a measure of infectivity in H9 cells.
Cell-free HIV-1, at a multiplicity of infection (m.o.i.) equal to 0.01-0.001, was added to 10^7 H9 cells which had been pretreated with 2 μg/ml Polybrene® (hexadimethrene bromide, Sigma). Following a 30 min incubation at 37° C. to absorb the virus, 4 × 10^5 of virus treated cells in 1 mL of fresh medium (plus 10% fetal calf serum, pencillin and streptomycin) were added to each well of a 24 well tissue culture plate (Falcon), and mixed with an equal volume of serum-free RPMI-1640 medium containing analog. Medium containing 5% serum, antibiotics ± analog was replaced every other day. Each of the heteroatom substituted analogs was prepared as a 100 mM stock solution in 100% ethanol and stored at -90° C. prior to dilution in the serum-free RPMI-1640 medium. The maximum final ethanol concentration reached after dilution of the different analogs in media was 0.1%. Therefore, uninfected and infected H9 cells, treated with or without 0.1% ethanol, were used as controls for each test. Ethanol alone had no demonstrable effects.
Except for the preliminary screening of the various (coded) analogs which was done twice, all other assays were performed at least three times. Samples were tested in duplicate each time the assay was repeated.
Virus Assays. Virus was quantitated using supernatant solutions of cells harvested on day 8 (m.o.i.=0.01) or day 10 (m.o.i.=0.001) of treatment. Virions were concentrated 10 fold by precipitation of culture supernatants with a solution of polyethylene glycol (30% in 150 mM NaCl, 0.1 mM phenylmethylsulfonylfluoride). The precipitates were solubilized and virus-associated reverse transcriptase (RT) activity measured by [^32 P]TTP incorporation using a poly(rA)-oligo(dT) template [Poiesz et al., Proc. Natl. Acad. Sci. USA 77, 7415-7419 (1980)]. Cell supernatants were also tested for virus-specific antigen using a p24 ELISA from Dupont (Wilmington, DE). This assay can detect as little as 0.03 ng of antigen/mL (antigen=p24, the major structural nucleocapsid protein of HIV-1, as well as its precursor, Pr55^gag).
HIV-1 Replication in H9 Cells is Inhibited by Treatment with Heteroatom-Containing Analogs of Myristate. […]

HIV-1 [2] = assay: Syncytia assay in HIV-1 infected H9 cells; assay type: cell-based, HIV-1 strain HXB2gptX (in human H9 cells); settings: H9 cells
Experimental: as §1
Assay for HIV-1 Replication. The human T-lymphoid cell line, H9, was provided by R. D. Gallo (NIH) and maintained in RPMI-1640 medium supplemented with 10% fetal bovine serum, 100 IU/mL penicillin, 100 μg/mL streptomycin an 2 mM L-glutamine. […] The titer of the virus stock was determined by serial dilution using syncytia formation and reverse transcriptase activity (see below) as a measure of infectivity in H9 cells. […]
Syncytia Assay. The number of syncytia in each well was determined by microscopic examination on days 4-6 (infected, untreated control cultures), 8 and 10 (analog or decanoate treated cultures). The average number of multi-nucleated giant cells counted per 10 low-power fields (LPF =40 times magnification) was assigned to an arbitrary syncytia scale: 0=<1/LPF, 1+=1-4/LPF, 2+=5-7/LPF, 3+= 8-10/LPF, 4+=>10/LPF. By this criteria uninfected, control cells had zero synctia, and infected, untreated H9 cells were consistently scored as 4+.

H9 cells [3] = assay: Toxicity in HIV-1 infected H9 cells: viable cell count by trypan blue exclusion; assay type: cell-based, human
Experimental: as §1
Toxicity Studies. These analyses were conducted for both assay systems. Cell survival was determined by trypan-blue exclusion. The number of unstained cells/mL in the treated cultures was divided by the number of unstained cells/mL in the untreated control cultures and expressed as percent control. Protein synthesis was measured at the end of the treatment periods by metabolic labeling for 4 hrs with L-[4,5^3 H(N)]-leucine (2 μCi/mL media, specific activity =140 Ci/mmol). All cells contained in a given well of a 24 well plate were recovered by scraping, the protein precipitated by TCA (final concentration =10%) and the solution subsequently incubated at 100° C. for 5 min prior to passage over glass fiber filters (Whatman). In the case of the H-9 assay, treated or untreated cells were pulsed labeled at the conclusion of the 10 day incubation. […] DNA synthesis was assessed on day 10 of the H9 assay. […]

H9 cells [4] = assay: [3H]leucine and [3H]thymidine labeling (protein and DNA synthesis) in HIV-1 infected H9 cells; assay type: cell-based, human; settings: day 10
Experimental: as §1, with “Panel C - The effect of 13-oxamyristic acid on syncytia formation using an arbitrary scale described under Materials and Methods, Example 16, below.” left out, “Duplicate assays were performed and the results averaged.” left out
Toxicity Studies. […] Cell survival was determined by trypan-blue exclusion. The number of unstained cells/mL in the treated cultures was divided by the number of unstained cells/mL in the untreated control cultures and expressed as percent control. Protein synthesis was measured at the end of the treatment periods by metabolic labeling for 4 hrs with L-[4,5^3 H(N)]-leucine (2 μCi/mL media, specific activity =140 Ci/mmol). […]

[5] = Human immunodeficiency virus 1, H9, 240 h, read-out: reverse transcriptase (RT) activity

## COCCCCCCCCCCCC(=O)O [13-oxamyristate, 12-(Methoxy)dodecanoic acid]
HIV-1 [1]; 0.1 μM to 100 μM, H9 cells
  dose dependence of reduction in reverse transcriptase activity: dose dependent reduction in reverse transcriptase activity
HIV-1 [1]; 1-10 μM, 10 day incubation, HIV-1 infected H9 cells
  effect on reverse transcriptase activity: More pronounced effects
HIV-1 [1]; H9 cells
  relative efficacy on HIV-1 production: greatest effects
HIV-1 [1]; H9 cells, listed as 13-oxamyristic acid
  relative efficacy on HIV-1 production: most effective
HIV-1 [1]; 20-40 μM range, H9 cells
  reduction in virus replication (reverse transcriptase): greater than 90%
HIV-1 [1]; [5]
  activity at 10 µM: 20%
  activity at 100 µM: < 10%
HIV-1 [2]; 40-80 μM vs 5 μM AZT
  reduction in syncytia compared with AZT: comparable to that obtained with 5 μM AZT
HIV-1 [2]; FIG. 1C
  syncytia reduction compared with RT and p24 assays: paralleled the results of the reverse transcriptase and p24 ELISA assays
H9 cells [3]; 20 to 40 μM, 10 day treatment
  viable cell count in HIV-1 infected H9 cultures relative to untreated controls: equivalent to that of untreated controls
H9 cells [3]; 10 day treatment, trypan blue exclusion
  viable cell count in HIV-1 infected H9 cultures: an increase in viable cell count was observed
H9 cells [3]; HIV-1 infected H9 cells, suggested by viable cell number
  direct toxicity to the cells: not directly toxic to the cells
H9 cells [4]
  [3H]leucine labeling: correlated with the cell survival data
  [3H]thymidine labeling: correlated with the cell survival data
